# According to US20120324604A1, “PESTICIDAL MIXTURES CONTAINING ISOXAZOLINE DERIVATIVES AND A FUNGICIDE” (priority 2010, published 2012):
# Several values for one entry are separate records, joined by “and”; a condition that tells them apart may be missing. Identical values can stand only once.
# Key:
# Assay type in all cases: cell-based
# Pythium ultimum = Pythium ultimum (Damping Off) growth inhibition, microtiter plate, photometric
# Protocol: Pythium ultimum (Damping Off):
# Mycelial fragments of the fungus, prepared from a fresh liquid culture, were directly mixed into nutrient broth (potato dextrose broth). After placing a (DMSO) solution of the test compounds into a microtiter plate (96-well format) the nutrient broth containing the fungal spores was added.
# Gaeumannomyces graminis = Gaeumannomyces graminis growth inhibition, microtiter plate, photometric
# Protocol: Mycelial fragments of the fungus from cryogenic storage were directly mixed into nutrient broth (potato dextrose broth). After placing a (DMSO) solution of the test compounds into a microliter plate (96-well format) the nutrient broth containing the fungal spores was added.
# [1] = system: Mycosphaerella arachidis (syn. Cercospora arachidicola); assay: Mycosphaerella arachidis (Brown Leaf Spot of Groundnut) growth inhibition, microtiter plate, photometric; conditions: alone
# Protocol: Mycosphaerella arachidis (syn. Cercospora arachidicola), Brown Leaf Spot of Groundnut (Peanut):
# (§1) Conidia of the fungus from cryogenic storage were directly mixed into nutrient broth (potato dextrose broth). After placing a (DMSO) solution of the test compounds into a microtiter plate (96-well format) the nutrient broth containing the fungal spores was added.
# [2] = system: Glomerella lagenarium (syn. Colletotrichum lagenarium); assay: Glomerella lagenarium (Anthracnose of Cucurbits) growth inhibition, microtiter plate, photometric; conditions: alone
# Protocol: Glomerella lagenarium (syn. Colletotrichum lagenarium), Anthracnose of Cucurbits:
# as §1
# Septoria tritici = Septoria tritici (Leaf Blotch) growth inhibition, microtiter plate, photometric
# Protocol: Septoria tritici (Leaf Blotch):
# as §1
# Rhizoctonia solani = Rhizoctonia solani (Foot Rot, Damping-Off) growth inhibition, microtiter plate, photometric
# Protocol: Rhizoctonia solani (Foot Rot, Damping-Off):
# Mycelial fragments of the fungus from cryogenic storage were directly mixed into nutrient broth (potato dextrose broth). After placing a (DMSO) solution of the test compounds into a microtiter plate (96-well format) the nutrient broth containing the fungal spores was added.
# Fusarium culmorum = Fusarium culmorum (Root Rot) growth inhibition, microtiter plate, photometric
# Protocol: Fusarium culmorum (Root Rot):
# as §1
# [3] = single compound at 0.078125 ppm AI
# [4] = single compound at 0.15625 ppm AI
# [5] = single compound at 0.3125 ppm AI
# [6] = single compound at 0.625 ppm AI
# [7] = single compound at 0.125 ppm AI
# [8] = single compound at 0.0625 ppm AI
structure (smiles),measurement,setting,value
Cc1cc(C2=NOC(c3cc(Cl)cc(Cl)c3)(C(F)(F)F)C2)ccc1C(=O)NC1C[S+]([O-])C1 (stereo not drawn) [A6],AVERAGE DEAD IN %,Pythium ultimum; [3],0%
same,AVERAGE DEAD IN %,Pythium ultimum; [4],0%
same,AVERAGE DEAD IN %,Pythium ultimum; [5],0%
same,AVERAGE DEAD IN %,Pythium ultimum; [6],0%
same,AVERAGE DEAD IN %,Pythium ultimum; single compound at 1.25 ppm AI,0%
same,AVERAGE DEAD IN %,Pythium ultimum; single compound at 2.5 ppm AI,0%
same,AVERAGE DEAD IN %,Pythium ultimum; single compound at 5 ppm AI,0%
same,AVERAGE DEAD IN %,Pythium ultimum; single compound at 10 ppm AI,0%
same,AVERAGE DEAD IN %,Pythium ultimum; single compound at 20 ppm AI,0%
same,AVERAGE DEAD IN %,Gaeumannomyces graminis; single compound at 0.0390625 ppm AI,0%
same,AVERAGE DEAD IN %,Gaeumannomyces graminis; [3],0%
same,AVERAGE DEAD IN %,Gaeumannomyces graminis; [4],0%
same,AVERAGE DEAD IN %,Gaeumannomyces graminis; [5],0%
same,AVERAGE DEAD IN %,Gaeumannomyces graminis; [6],0%
same,AVERAGE DEAD IN %,Gaeumannomyces graminis; single compound at 1.25 ppm AI,0%
same,AVERAGE DEAD IN %,Gaeumannomyces graminis; single compound at 2.5 ppm AI,0%
same,AVERAGE DEAD IN %,Gaeumannomyces graminis; single compound at 5 ppm AI,0%
same,AVERAGE DEAD IN %,Gaeumannomyces graminis; single compound at 10 ppm AI,0%
same,AVERAGE DEAD IN %,Gaeumannomyces graminis; single compound at 20 ppm AI,0%
same,AVERAGE DEAD IN %,[1]; 0.0390625 PPM AI,0%
same,AVERAGE DEAD IN %,[1]; 0.078125 PPM AI,0%
same,AVERAGE DEAD IN %,[1]; 0.15625 PPM AI,0%
same,AVERAGE DEAD IN %,[1]; 0.3125 PPM AI,0%
same,AVERAGE DEAD IN %,[1]; 0.625 PPM AI,0%
same,AVERAGE DEAD IN %,[1]; 1.25 PPM AI,0%
same,AVERAGE DEAD IN %,[1]; 2.5 PPM AI,0%
same,AVERAGE DEAD IN %,[1]; 5 PPM AI,0%
same,AVERAGE DEAD IN %,[1]; 10 PPM AI,0%
same,AVERAGE DEAD IN %,[1]; 20 PPM AI,0%
same,AVERAGE DEAD IN %,[2]; 0.078125 ppm AI,0%
same,AVERAGE DEAD IN %,[2]; 0.15625 ppm AI,0%
same,AVERAGE DEAD IN %,[2]; 2.5 ppm AI,0%
same,AVERAGE DEAD IN %,[2]; 5 ppm AI,0%
same,AVERAGE DEAD IN %,[2]; 10 ppm AI,0%
same,AVERAGE DEAD IN %,[2]; 20 ppm AI,0%
same,AVERAGE DEAD IN %,"Septoria tritici; 0.3125 ppm AI, alone",0%
same,AVERAGE DEAD IN %,"Septoria tritici; 0.625 ppm AI, alone",0%
same,AVERAGE DEAD IN %,"Septoria tritici; 1.25 ppm AI, alone",0%
same,AVERAGE DEAD IN %,"Septoria tritici; 2.5 ppm AI, alone",0%
same,AVERAGE DEAD IN %,"Septoria tritici; 5 ppm AI, alone",0%
same,AVERAGE DEAD IN %,"Septoria tritici; 10 ppm AI, alone",0%
same,AVERAGE DEAD IN %,"Septoria tritici; 20 ppm AI, alone",0%
same,AVERAGE DEAD IN % A6,"Septoria tritici; A6 alone, 0.0390625 ppm AI",0%
same,AVERAGE DEAD IN % A6,"Septoria tritici; A6 alone, 0.078125 ppm AI",0%
same,AVERAGE DEAD IN % A6,"Septoria tritici; A6 alone, 0.15625 ppm AI",0%
same,AVERAGE DEAD IN % A6,"Septoria tritici; A6 alone, 0.3125 ppm AI",0%
same,AVERAGE DEAD IN % A6,"Septoria tritici; A6 alone, 0.625 ppm AI",0%
same,AVERAGE DEAD IN % A6,"Septoria tritici; A6 alone, 1.25 ppm AI",0%
same,AVERAGE DEAD IN % A6,"Septoria tritici; A6 alone, 2.5 ppm AI",0%
same,AVERAGE DEAD IN % A6,"Septoria tritici; A6 alone, 5 ppm AI",0%
same,AVERAGE DEAD IN % A6,"Septoria tritici; A6 alone, 10 ppm AI",0%
same,AVERAGE DEAD IN % A6,"Septoria tritici; A6 alone, 20 ppm AI",0%
same,AVERAGE DEAD IN %,"Rhizoctonia solani; applied alone, 0.0390625 ppm AI",0%
same,AVERAGE DEAD IN %,"Rhizoctonia solani; applied alone, 0.078125 ppm AI",0%
same,AVERAGE DEAD IN %,"Rhizoctonia solani; applied alone, 0.15625 ppm AI",0%
same,AVERAGE DEAD IN %,"Rhizoctonia solani; applied alone, 0.3125 ppm AI",0%
same,AVERAGE DEAD IN %,"Rhizoctonia solani; applied alone, 0.625 ppm AI",0%
same,AVERAGE DEAD IN %,"Rhizoctonia solani; applied alone, 1.25 ppm AI",0%
same,AVERAGE DEAD IN %,"Rhizoctonia solani; applied alone, 2.5 ppm AI",0%
same,AVERAGE DEAD IN %,"Rhizoctonia solani; applied alone, 5 ppm AI",0%
same,AVERAGE DEAD IN %,"Rhizoctonia solani; applied alone, 10 ppm AI",0%
same,AVERAGE DEAD IN %,"Rhizoctonia solani; applied alone, 20 ppm AI",0%
same,AVERAGE DEAD IN %,"Fusarium culmorum; single compound, 2.5 PPM AI, 48 hrs, 24° C.",0%
same,AVERAGE DEAD IN %,"Fusarium culmorum; single compound, 5 PPM AI, 48 hrs, 24° C.",0%
same,AVERAGE DEAD IN %,"Fusarium culmorum; single compound, 10 PPM AI, 48 hrs, 24° C.",0%
same,AVERAGE DEAD IN %,"Fusarium culmorum; single compound, 20 PPM AI, 48 hrs, 24° C.",0%
"CO/C=C(/C(=O)OC)c1ccccc1Oc1cc(Oc2ccccc2C#N)ncn1 [Azoxystrobin, reference compound]",AVERAGE DEAD IN %,Pythium ultimum; [7],0%
same,AVERAGE DEAD IN %,"Gaeumannomyces graminis; applied alone, 0.00390625 ppm AI",0%
same,AVERAGE DEAD IN %,"Gaeumannomyces graminis; applied alone, 0.0078125 ppm AI",0%
same,AVERAGE DEAD IN %,"Gaeumannomyces graminis; applied alone, 0.015625 ppm AI",0%
same,AVERAGE DEAD IN %,"Gaeumannomyces graminis; applied alone, 0.03125 ppm AI",0%
same,AVERAGE DEAD IN %,"Gaeumannomyces graminis; applied alone, 0.0625 ppm AI",0%
same,AVERAGE DEAD IN %,"Gaeumannomyces graminis; applied alone, 0.125 ppm AI",20%
same,AVERAGE DEAD IN %,"Gaeumannomyces graminis; applied alone, 0.25 ppm AI",20%
same,AVERAGE DEAD IN %,"Gaeumannomyces graminis; applied alone, 0.5 ppm AI",50%
same,AVERAGE DEAD IN %,"Gaeumannomyces graminis; applied alone, 1 ppm AI",50%
same,AVERAGE DEAD IN %,"Gaeumannomyces graminis; applied alone, 2 ppm AI",50%
same,AVERAGE DEAD IN %,Gaeumannomyces graminis; single compound at 0.00390625 ppm AI,20%
same,AVERAGE DEAD IN %,Gaeumannomyces graminis; single compound at 0.015625 ppm AI,90% and 50%
same,AVERAGE DEAD IN %,Gaeumannomyces graminis; single compound at 0.03125 ppm AI,100% and 50%
same,AVERAGE DEAD IN %,Gaeumannomyces graminis; [8],50%
same,AVERAGE DEAD IN %,Gaeumannomyces graminis; [7],70%
same,AVERAGE DEAD IN %,Gaeumannomyces graminis; single compound at 0.25 ppm AI,70%
same,AVERAGE DEAD IN %,Gaeumannomyces graminis; single compound at 0.5 ppm AI,90%
same,AVERAGE DEAD IN %,Gaeumannomyces graminis; single compound at 1 ppm AI,90%
same,AVERAGE DEAD IN %,Gaeumannomyces graminis; single compound at 2 ppm AI,90%
same,AVERAGE DEAD IN %,[1]; 0.0078125 ppm AI,0%
same,AVERAGE DEAD IN %,[1]; 0.015625 ppm AI,0%
same,AVERAGE DEAD IN %,[1]; 0.0625 ppm AI,70% and 50%
same,AVERAGE DEAD IN %,[1]; 0.125 ppm AI,90%
same,AVERAGE DEAD IN %,[1]; 0.0078125 PPM AI,0%
same,AVERAGE DEAD IN %,[1]; 0.015625 PPM AI,20%
same,AVERAGE DEAD IN %,[1]; 0.03125 PPM AI,50% and 70%
same,AVERAGE DEAD IN %,[1]; 0.0625 PPM AI,90%
same,AVERAGE DEAD IN %,[2]; 0.0078125 ppm AI,0%
same,AVERAGE DEAD IN %,[2]; 0.015625 ppm AI,20%
same,AVERAGE DEAD IN %,[2]; 0.03125 ppm AI,50%
same,AVERAGE DEAD IN %,"Septoria tritici; 0.015625 ppm AI, alone",20%
same,AVERAGE DEAD IN %,"Septoria tritici; 0.03125 ppm AI, alone",50%
same,AVERAGE DEAD IN %,"Septoria tritici; 0.0625 ppm AI, alone",70%
same,AVERAGE DEAD IN %,"Septoria tritici; 0.125 ppm AI, alone",90%
same,AVERAGE DEAD IN % Azoxystrobin,"Septoria tritici; Azoxystrobin alone, 0.015625 ppm AI",20%
same,AVERAGE DEAD IN % Azoxystrobin,"Septoria tritici; Azoxystrobin alone, 0.0625 ppm AI",70%
same,AVERAGE DEAD IN % Azoxystrobin,"Septoria tritici; Azoxystrobin alone, 0.125 ppm AI",90%
same,AVERAGE DEAD IN %,"Septoria tritici; alone, 0.0078125 ppm AI",0%
same,AVERAGE DEAD IN %,"Septoria tritici; alone, 0.015625 ppm AI",20%
same,AVERAGE DEAD IN %,"Septoria tritici; alone, 0.03125 ppm AI",50%
same,AVERAGE DEAD IN %,"Septoria tritici; alone, 0.0625 ppm AI",70%
same,AVERAGE DEAD IN %,"Septoria tritici; alone, 0.125 ppm AI",90%
same,AVERAGE DEAD IN %,"Rhizoctonia solani; applied alone, 0.125 ppm AI",20%
same,AVERAGE DEAD IN %,"Rhizoctonia solani; applied alone, 0.25 ppm AI",20%
same,AVERAGE DEAD IN %,"Rhizoctonia solani; applied alone, 0.5 ppm AI",20%
same,AVERAGE DEAD IN %,"Rhizoctonia solani; applied alone, 1 ppm AI",20%
same,AVERAGE DEAD IN %,"Rhizoctonia solani; applied alone, 2 ppm AI",20%
same,AVERAGE DEAD IN %,Rhizoctonia solani; [8],20%
same,AVERAGE DEAD IN %,Rhizoctonia solani; [7],20%
same,AVERAGE DEAD IN %,Rhizoctonia solani; single compound at 0.25 ppm AI,20%
same,AVERAGE DEAD IN %,Rhizoctonia solani; single compound at 0.5 ppm AI,20%
same,AVERAGE DEAD IN %,Rhizoctonia solani; single compound at 1 ppm AI,20%
same,AVERAGE DEAD IN %,Rhizoctonia solani; single compound at 2 ppm AI,20%
same,AVERAGE DEAD IN %,"Fusarium culmorum; alone, 0.5 PPM AI",0%
same,AVERAGE DEAD IN %,"Fusarium culmorum; alone, 1 PPM AI",20%
same,AVERAGE DEAD IN %,"Fusarium culmorum; alone, 2 PPM AI",20%
